Assays:
pyruvate kinase [1] = assay: ATP inhibition of pyruvate kinase in cell homogenates (compound optical assay, NADH at 340 mµ); format: biochemical, Mouse
From the text: (§1) In more detail, the theoretical basis of this new method is as follows. -The step-wise degradation of glucose to pyruvic acid, according to the well-known Embden-Myerhof pathway, includes the reaction: [drawing 3] wherein ADP and ATP are, respectively, adenosine diphosphate and adenosine triphosphate. In healthy cells this reaction is suppressed by ATP inhibition of the enzyme pyruvate kinase. I have discovered, as previously noted, that in cancerous cells the reaction proceeds in greater or less degree, correlative to the degree of malignancy, in proportion to the extent to which ATP fails to inhibit pyruvate kinase activity. A preferred assay, therefore, involves assessment of the progress of the foregoing reaction in the presence of various levels of ATP calculated to reveal the extent, if any, by which sample-derived pyruvate kinase activity is inhibited by ATP. The extent of such inhibition can be characterised on a percentage scale relative to the foregoing reaction, taking 0% as no inhibition, 100% as total inhibition, and "maximum percent inhibition of pyruvate kinase activity" as that point on the scale beyond which addition of further ATP essentially fails to affect further the progress of the reaction.
(§2) An especially preferred method of following the reaction spectrophotometrically involves compound optical assay, in which the influence of the reaction under study on a secondary reaction with an observable end product is followed. See Felu, FEBS Letters 50, 334 (1975) and Bucher, T. et al., in : Methods in Enzymology, Vol. I (S.P. Colowick and N.O. Kaplan, eds.) Academic Press, N.Y. p. 435. Thus, in the compound reaction: [drawing 4] pyruvate kinase activity can be monitored by observing the rate of disappearance of the band (at 340 m µ) of the hydrogen donor NADH (nicotinamide adenine dinucleotide, reduced form). Successive repetitions of the assay with differing amounts of added ATP establish the point beyond which ATP addition fails to influence the rate of disappearance of the hydrogen donor.
Samples for assay may be obtained as whole tissue (e.g., of volume 1-10 mm^3) in the case of suspected tumours, by intraoperatorybiopsy or needle biopsy. In the case of suspected blood malignancies, the collection of white blood cells by differential centrifugation is sufficient. Samples are preserved on ice pending the preparation of homogenates suitable for assay. Homogenisation frees cell-contained pyruvate kinase for assay and involves cell disruption by conventional techniques which avoid, to a useful degree, the destruction of nuclei, mitochondria and other cell particulates. Typically, the sample may be placed in a hand homogeniser which is supplied with the assay kit, in buffered isotonic solution, and homogenised with several strokes of a pestle. […]

pyruvate kinase [2] = assay: as above; format: biochemical
From the text: as §1, §2
Samples for assay may be obtained as whole tissue (e.g., of volume 1-10 mm^3) in the case of suspected tumours, by intraoperatorybiopsy or needle biopsy. In the case of suspected blood malignancies, the collection of white blood cells by differential centrifugation is sufficient. Samples are preserved on ice pending the preparation of homogenates suitable for assay. Homogenisation frees cell-contained pyruvate kinase for assay and involves cell disruption by conventional techniques which avoid, to a useful degree, the destruction of nuclei, mitochondria and other cell particulates. Typically, the sample may be placed in a hand homogeniser which is supplied with the assay kit, in buffered isotonic solution, and homogenised with several strokes of a pestle. From, e.g., 0.1 to 1 ml of buffered solution, depending on the size of the sample, is preferably employed. As one of many appropriate buffers may be mentioned a solution comprising 50 mM Tris-HC1, pH 7.0, 0.1 mM EDTA and 0.5 mM dithioerythritol. In the preferred embodiment of the invention the homogenate is next centrifuged, for example at about 5,000-10,000 rpm in a conical centrifuge tube for 10 minutes, and the supernatant is dialysed against water (e.g., for 2 hours at about 2-4°C.). The contents of the dialysis bag are then transferred to a tube immersed in ice. In the case of large samples, the centrifugation and dialysis steps may be omitted, as will be appreciated by the art-skilled. Preferably, however, a dialysis bag is supplied with the kit. As used herein, the term "homogenate" refers to a free enzyme-containing product of homogenisation, whether or not accompanied by other cellular debris. […]

SMILES: Nc1ncnc2c1ncn2[C@@H]1O[C@H](COP(=O)(O)OP(=O)(O)OP(=O)(O)O)[C@@H](O)[C@H]1O [ATP, adenosine triphosphate]
- MAXIMUM % INHIBITION OF PYRUVATE KINASE BY ATP (pyruvate kinase [1]; Erhlich ascites (Paris strain), Mouse, Very high growth rate): 4%
- MAXIMUM % INHIBITION OF PYRUVATE KINASE BY ATP (pyruvate kinase [1]; Erhlich ascites tumour (Rome Strain), Mouse, Slow growth rate): 39%
- MAXIMUM % INHIBITION OF PYRUVATE KINASE BY ATP (pyruvate kinase [1]; Leukaemia 1210, Mouse, Very malign): 16%
- MAXIMUM % INHIBITION OF PYRUVATE KINASE BY ATP (pyruvate kinase [1]; Leukaemia P-P388, Mouse, Malign): 25%
- MAXIMUM % INHIBITION OF PYRUVATE KINASE BY ATP (pyruvate kinase [2]; Acute lympho-blastic leukaemia, Human, Moderately malign): 32%
- MAXIMUM % INHIBITION OF PYRUVATE KINASE BY ATP (pyruvate kinase [2]; Cerebral ependonoma, Human, Benign): 40%
- MAXIMUM % INHIBITION OF PYRUVATE KINASE BY ATP (pyruvate kinase [2]; Glioma, Human, Malign): 15%
- MAXIMUM % INHIBITION OF PYRUVATE KINASE BY ATP (pyruvate kinase [2]; Mammary carcinoma, Human, Malign): 17%
- MAXIMUM % INHIBITION OF PYRUVATE KINASE BY ATP (pyruvate kinase [2]; Mammary fibro-adenoma, Rat, Very benign): 49%
- MAXIMUM % INHIBITION OF PYRUVATE KINASE BY ATP (pyruvate kinase [2]; Multiform glioma, Human, Very malign): 4%
- MAXIMUM % INHIBITION OF PYRUVATE KINASE BY ATP (pyruvate kinase [2]; Normal liver, Human, No cell growth): 99%
- MAXIMUM % INHIBITION OF PYRUVATE KINASE BY ATP (pyruvate kinase [2]; Normal tissue, Rat, No cell growth): 99%
- MAXIMUM % INHIBITION OF PYRUVATE KINASE BY ATP (pyruvate kinase [2]; Ovarian carcinoma, Human, Malign): 10%
- MAXIMUM % INHIBITION OF PYRUVATE KINASE BY ATP (pyruvate kinase [2]; Walter Carcino-sarcoma, Rat, Malign): 22%

Source: patent EP0002933A1, “Method for assessing cancerous malignancy or benignity and diagnostic pack for use therein” (Gosalvez, Mario Gosalvez, priority 1977, dated 1979)
